Assay results: patent publication US10336775B2 (Asceneuron SA, priority 2014, dated 2019)
Read-outs that look alike come from different tables or passages of the source.

Biological target: His-Tagged hOGA (human O-GlcNAcase) (Homo sapiens (Human), UniProt O60502)
Test: Human O-GlcNAcase enzyme inhibition assay (Example B01)
Format: biochemical
Conditions: for IC50: OGA enzyme inhibition assay, activity range classes defined in μM; for OGA inhibitor activity (in words): measured according to Example B01

Sequence of His-Tagged hOGA (human O-GlcNAcase) (O60502 whole entry): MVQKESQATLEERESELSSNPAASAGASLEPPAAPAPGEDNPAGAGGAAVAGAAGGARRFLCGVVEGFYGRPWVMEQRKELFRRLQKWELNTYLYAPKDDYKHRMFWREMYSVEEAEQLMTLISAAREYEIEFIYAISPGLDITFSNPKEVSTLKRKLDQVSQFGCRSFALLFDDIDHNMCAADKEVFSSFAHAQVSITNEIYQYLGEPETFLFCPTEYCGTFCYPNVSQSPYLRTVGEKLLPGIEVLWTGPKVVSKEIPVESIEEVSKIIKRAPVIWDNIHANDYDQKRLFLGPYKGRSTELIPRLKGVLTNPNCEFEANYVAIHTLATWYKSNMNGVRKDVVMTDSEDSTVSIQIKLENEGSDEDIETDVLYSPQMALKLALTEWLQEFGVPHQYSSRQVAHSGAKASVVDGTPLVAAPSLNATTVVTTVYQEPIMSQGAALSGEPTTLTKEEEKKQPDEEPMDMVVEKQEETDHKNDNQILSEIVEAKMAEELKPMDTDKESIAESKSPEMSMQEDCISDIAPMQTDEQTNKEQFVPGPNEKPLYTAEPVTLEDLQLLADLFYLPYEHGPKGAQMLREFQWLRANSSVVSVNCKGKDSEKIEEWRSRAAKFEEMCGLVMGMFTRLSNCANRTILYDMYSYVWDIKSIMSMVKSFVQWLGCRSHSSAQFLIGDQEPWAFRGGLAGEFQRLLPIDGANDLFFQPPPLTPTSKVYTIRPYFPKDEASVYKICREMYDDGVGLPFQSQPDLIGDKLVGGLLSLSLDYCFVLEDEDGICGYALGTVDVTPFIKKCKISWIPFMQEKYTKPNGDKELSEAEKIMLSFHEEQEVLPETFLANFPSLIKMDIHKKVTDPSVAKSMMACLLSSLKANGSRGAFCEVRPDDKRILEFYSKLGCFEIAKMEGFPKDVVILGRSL

IC50 (read-out: OGA IC50) [µM]	OGA inhibitor activity (in words)	SMILES	IC50 (OGA IC50 (M)) [µM]
0.05 to 0.2		CNC(=O)c1csc(N2CCN(C(C)c3ccc4c(c3)OCCO4)CC2)n1 (racemic) [Example 50, 2-(4-(1-(2,3-dihydrobenzo[b][1,4]dioxin-6-yl)ethyl)piperazin-1-yl)-N-methylthiazole-4-carboxamide]	
0.05 to 0.2		CC(=O)Nc1nccc(N2CCN(C(C)c3ccc4c(c3)OCO4)CC2)n1 (racemic) [Example 54, N-(4-(4-(1-(Benzo[d][1,3]dioxol-5-yl)ethyl)piperazin-1-yl)pyrimidin-2-yl)acetamide]	
0.05 to 0.2		CC(c1ccc2c(c1)OCO2)N1CCN(c2ccc(N)cn2)CC1 (racemic) [Example 58, 6-(4-(1-(Benzo[d][1,3]dioxol-5-yl)ethyl)piperazin-1-yl)pyridin-3-amine]	
0.2 to 1		CC(c1ccc2c(c1)OCO2)N1CCN(c2ncc(N)cn2)CC1 (racemic) [Example 70, 2-(4-(1-(Benzo[d][1,3]dioxol-5-yl)ethyl)piperazin-1-yl)pyrimidin-5-amine]	
0.05 to 0.2		CC(c1ccc2c(c1)OCCO2)N1CCN(c2ncc(C(=O)N3CCC(O)CC3)s2)CC1 (racemic) [Example 73, (2-(4-(1-(2,3-Dihydrobenzo[b][1,4]dioxin-6-yl)ethyl)piperazin-1-yl)thiazol-5-yl)(4-hydroxypiperidin-1-yl)methanone]	
0.05 to 0.2		CC(c1ccc2c(c1)OCO2)N1CCN(c2ncc(CN3CCOCC3)s2)CC1 (racemic) [Example 79, 4-((2-(4-(1-(Benzo[d][1,3]dioxol-5-yl)ethyl)piperazin-1-yl)thiazol-5-yl)methyl)morpholine]	
< 0.05		CC(=O)N(C)Cc1cnc(N2CCN(C(C)c3ccc4c(c3)OCO4)CC2)s1 (racemic) [Example 80, N-((2-(4-(1-(benzo[d][1,3]dioxol-5-yl)ethyl)piperazin-1-yl)thiazol-5-yl)methyl)-N-methylacetamide]	
0.05 to 0.2		CC(c1ccc2nccnc2c1)N1CCN(c2ncccn2)CC1 (racemic) [Example 83, 6-(1-(4-(pyrimidin-2-yl)piperazin-1-yl)ethyl)quinoxaline]	
< 0.05		CC(=O)Nc1ncc(N2CCN(C(C)c3ccc4c(c3)OCO4)CC2)s1 (racemic) [Example 86, N-(5-(4-(1-(benzo[d][1,3]dioxol-5-yl)ethyl)piperazin-1-yl)thiazol-2-yl)acetamide]	
0.2 to 1		CCOC(=O)c1cnc(N2CCN(C(C)c3ccc4nccnc4c3)CC2)s1 (racemic) [Example 90, Ethyl-2-(4-(1-(quinoxalin-6-yl)ethyl)piperazin-1-yl)thiazole-5-carboxylate]	
0.2 to 1		CC(c1ccc2nccnc2c1)N1CCN(c2nccc(C(F)(F)F)n2)CC1 (racemic) [Example 94, 6-(1-(4-(4-(trifluoromethyl)pyrimidin-2-yl)piperazin-1-yl)ethyl)quinoxaline]	
0.2 to 1		CC(=O)Nc1nnc(N2CCN(C(C)c3ccc4c(Cl)ccnc4c3)CC2)s1 (racemic) [Example 100, N-(5-(4-(1-(4-chloroquinolin-7-yl)ethyl)piperazin-1-yl)-1,3,4-thiadiazol-2-yl)acetamide]	
< 0.05		CC(C)C(=O)Nc1nnc(N2CCN(C(C)c3ccc4c(c3)OCO4)CC2)s1 (racemic) [Example 107, N-(5-(4-(1-(benzo[d][1,3]dioxol-5-yl)ethyl)piperazin-1-yl)-1,3,4-thiadiazol-2-yl)isobutyramide]	
< 0.05		CC(c1ccc2c(c1)OCO2)N1CCN(c2nnc(NC(=O)C3CC3)s2)CC1 (racemic) [Example 108, N-(5-(4-(1-(benzo[d][1,3]dioxol-5-yl)ethyl)piperazin-1-yl)-1,3,4-thiadiazol-2-yl)cyclo propanecarboxamide]	
0.05 to 0.2		CC(c1ccc2c(c1)OCO2)N1CCN(c2nnc(NC(=O)c3ccc(Cl)cc3)s2)CC1 (racemic) [Example 110, N-(5-(4-(1-(benzo[d][1,3]dioxol-5-yl)ethyl)piperazin-1-yl)-1,3,4-thiadiazol-2-yl)-4-chlorobenzamide]	
0.05 to 0.2		CCNc1nnc(N2CCN(C(C)c3ccc4c(c3)OCO4)CC2)s1 (racemic) [Example 112, 5-(4-(1-(benzo[d][1,3]dioxol-5-yl)ethyl)piperazin-1-yl)-N-ethyl-1,3,4-thiadiazol-2-amine]	
0.05 to 0.2		CC(c1ccc2c(c1)OCO2)N1CCN(c2ncc3cc[nH]c3n2)CC1 (racemic) [Example 113, 2-(4-(1-(benzo[d][1,3]dioxol-5-yl)ethyl)piperazin-1-yl)-7H-pyrrolo[2,3-d]pyrimidine]	
0.05 to 0.2		CC(=O)Nc1nnc(N2CCN(C(C)c3ccc4cccnc4c3)CC2)s1 (racemic) [Example 115, N-(5-(4-(1-(quinolin-7-yl)ethyl)piperazin-1-yl)-1,3,4-thiadiazol-2-yl)acetamide]	

The remaining lines, values behind:

SMILES	IC50 (read-out: OGA IC50) [µM]	OGA inhibitor activity (in words)	IC50 (OGA IC50 (M)) [µM]
CCOC(=O)c1cnc(N2CCN(C(C)c3ccc4c(c3)OCO4)CC2)nc1 (racemic) [Example 51, Ethyl 2-(4-(1-(benzo[d][1,3]dioxol-5-yl)ethyl)piperazin-1-yl)pyrimidine-5-carboxylate]	0.05 to 0.2		
CC(c1ccc2c(c1)OCO2)N1CCN(c2ncc(CO)cn2)CC1 (racemic) [Example 52, (2-(4-(1-(benzo[d][1,3]dioxol-5-yl)ethyl)piperazin-1-yl)pyrimidin-5-yl)methanol]	< 0.05	very potent OGA inhibitors	
CC(c1ccc2c(c1)CCO2)N1CCN(c2ncccn2)CC1 (racemic) [Example 53, 2-(4-(1-(2,3-dihydrobenzofuran-5-yl)ethyl)piperazin-1-yl)pyrimidine]	0.2 to 1		
CC(c1ccc2c(c1)OCO2)N1CCN(c2ncc(C(=O)N3CCOCC3)s2)CC1 (racemic) [Example 67, (2-(4-(1-(Benzo[d][1,3]dioxol-5-yl)ethyl)piperazin-1-yl)thiazol-5-yl)(morpholino)methanone]	0.05 to 0.2		
CC(=O)Nc1cnc(N2CCN(C(C)c3ccc4c(c3)OCO4)CC2)nc1 (racemic) [Example 72, N-(2-(4-(1-(benzo[d][1,3]dioxol-5-yl)ethyl)piperazin-1-yl)pyrimidin-5-yl)acetamide]		very potent OGA inhibitors	< 0.05
CC(=O)Nc1nnc(N2CCN(C(C)c3ccc(F)c(F)c3)CC2)s1 (racemic) [Example 76, N-(5-(4-(1-(3,4-difluorophenyl)ethyl)piperazin-1-yl)-1,3,4-thiadiazol-2-yl)acetamide]	1 to 10		
CC(c1ccc2cccnc2c1)N1CCN(c2ncccn2)CC1 (racemic) [Example 91, 7-(1-(4-(pyrimidin-2-yl)piperazin-1-yl)ethyl)quinoline]			0.05 to 0.2
CC(=O)Nc1cnc(N2CCN(C(C)c3ccc4nccnc4c3)CC2)nc1 (racemic) [Example 93, N-(2-(4-(1-(quinoxalin-6-yl)ethyl)piperazin-1-yl)pyrimidin-5-yl)acetamide]	< 0.05		
CC(=O)Nc1cnc(N2CCN(C(C)c3ccc4c(c3)OCCO4)CC2)nc1 (racemic) [Example 96, N-(2-(4-(1-(2,3-Dihydrobenzo[b][1,4]dioxin-6-yl)ethyl)piperazin-1-yl)pyrimidin-5-yl)acetamide]	< 0.05		
CC(=O)Nc1nnc(N2CCN(C(C)c3ccc4c(c3)OCCO4)CC2)s1 (racemic) [Example 97, N-(5-(4-(1-(2,3-Dihydrobenzo[b][1,4]dioxin-6-yl)ethyl)piperazin-1-yl)-1,3,4-thiadiazol-2-yl)acetamide]	< 0.05		
CNC(=O)c1cnc(N2CCN(C(C)c3ccc4c(c3)OCO4)CC2)nc1 (racemic) [Example 98, 2-(4-(1-(Benzo[d][1,3]dioxol-5-yl)ethyl)piperazin-1-yl)-N-methylpyrimidine-5-carboxamide]	< 0.05		
CC(c1ccc2c(c1)OCO2)N1CCN(c2ncc(C(=O)N(C)C)cn2)CC1 (racemic) [Example 99, 2-(4-(1-(benzo[d][1,3]dioxol-5-yl)ethyl)piperazin-1-yl)-N,N-dimethylpyrimidine-5-carboxamide]	< 0.05		
CC(=O)Nc1cnc(N2CCN(C(C)c3ccc4c(Cl)ccnc4c3)CC2)nc1 (racemic) [Example 101, N-(2-(4-(1-(4-chloroquinolin-7-yl)ethyl)piperazin-1-yl)pyrimidin-5-yl)acetamide]	0.2 to 1		
Cc1cnc(N2CCN(C(C)c3ccc4nccnc4c3)CC2)nc1 (racemic) [Example 102, 6-(1-(4-(5-Methylpyrimidin-2-yl)piperazin-1-yl)ethyl)quinoxaline]	0.05 to 0.2		
CCc1cnc(N2CCN(C(C)c3ccc4nccnc4c3)CC2)nc1 (racemic) [Example 103, 6-(1-(4-(5-ethylpyrimidin-2-yl)piperazin-1-yl)ethyl)quinoxaline]	0.05 to 0.2		
CCC(=O)Nc1nnc(N2CCN(C(C)c3ccc4c(c3)OCO4)CC2)s1 (racemic) [Example 105, N-(5-(4-(1-(benzo[d][1,3]dioxol-5-yl)ethyl)piperazin-1-yl)-1,3,4-thiadiazol-2-yl)propionamide]	< 0.05		
CCCC(=O)Nc1nnc(N2CCN(C(C)c3ccc4c(c3)OCO4)CC2)s1 (racemic) [Example 106, N-(5-(4-(1-(benzo[d][1,3]dioxol-5-yl)ethyl)piperazin-1-yl)-1,3,4-thiadiazol-2-yl)butyramide]	< 0.05		
CNC(=O)c1cnc(N2CCN(C(C)c3ccc4c(c3)OCCO4)CC2)s1 (racemic) [Example 109, 2-(4-(1-(2,3-dihydrobenzo[b][1,4]dioxin-6-yl)ethyl)piperazin-1-yl)-N-methylthiazole-5-carboxamide]	< 0.05		
CC(c1ccc2c(c1)OCO2)N1CCN(c2nnc(NCc3ccc(Cl)cc3)s2)CC1 (racemic) [Example 111, 5-(4-(1-(benzo[d][1,3]dioxol-5-yl)ethyl)piperazin-1-yl)-N-(4-chlorobenzyl)-1,3,4-thiadiazol-2-amine]	0.05 to 0.2		
CC(=O)Nc1nnc(N2CCN(C(C)c3ccc4scnc4c3)CC2)s1 (racemic) [Example 114, N-(5-(4-(1-(benzo[d]thiazol-5-yl)ethyl)piperazin-1-yl)-1,3,4-thiadiazol-2-yl)acetamide]	< 0.05	very potent OGA inhibitors	
